Values quoted from earlier work in US10264790B2, “Use of certain herbicide combinations based on iodosulfuron in teff plants” (BAYER CROPSCIENCE AKTIENGESELLSCHAFT, priority 2016, dated 2019).
Where two headings read alike, the source gives them in different places.

Assays:
teff (Eragrostis tef) = conditions: for injury on teff: in vivo; for yield reductions: field studies Kansas, teff
teff [1] = conditions: for levels of weed control, teff safety and teff yields: postemergence applications; for injury to teff: applied postemergence
teff [2] = conditions: for selectivity in teff: with or without the safener
[3] = tested on: Phalaris paradoxa and Setaria pallidefusca; conditions: pot experiments; applied pre-emergence (diclofop-methyl only with a safener)
[4] = postemergence treatments, field studies Oregon 2009

## COc1nc(C)nc(NC(=O)NS(=O)(=O)c2ccccc2CCC(F)(F)F)n1 [prosulfuron]
Teff (Eragrostis tef)
  injury on teff: less than 5%

## COc1cc(OC)nc(NC(=O)NS(=O)(=O)c2c(C(=O)O)c(Cl)nn2C)n1 [halosulfuron]
Teff (Eragrostis tef)
  injury on teff: less than 5%

## Nc1c(Cl)c(F)nc(OCC(=O)O)c1Cl [fluroxypyr]
Teff [1]; in vivo
  teff injury (in words): little or no teff injury

## COc1ccc(NC(=O)N(C)C)cc1Cl [metoxuron]
Teff [2]; pot experiments
  selectivity in teff: failed to show selectivity

## COc1nc(C)nc(NC(=O)NS(=O)(=O)c2ccccc2Cl)n1 [chlorsulfuron]
[3]
  control of Phalaris paradoxa and Setaria pallidefusca: controlled both weed species
Teff [1]; in vivo
  teff injury (in words): little or no teff injury
Teff [1]; field studies Oregon 2009
  levels of weed control, teff safety and teff yields: highest levels
Teff [2]; in vivo
  safety / tolerance on teff: safe on teff

## COc1cc(OC)nc(NC(=O)NS(=O)(=O)c2ncccc2C(=O)N(C)C)n1 [nicosulfuron]
Teff [1]; field studies Oregon 2009
  injury to teff: 20%

## COc1nn(C(=O)NS(=O)(=O)c2ccccc2OC(F)(F)F)c(=O)n1C [flucarbazone]
Teff [1]; [4]
  teff injury (in words): little or no teff injury

## O=C(O)COc1ccc(Cl)cc1Cl [2,4-D, (2,4-dichlorophenoxy)acetic acid]
Teff (Eragrostis tef)
  injury on teff: less than 5%

## CCc1cccc(CC)c1N(COC)C(=O)CCl [alachlor]
Teff [2]; pot experiments
  selectivity in teff: failed to show selectivity

## CCC/C(=N\OCC)C1=C(O)CC(CC(C)SCC)CC1=O (centres unmarked) [sethoxydim]
Teff (Eragrostis tef)
  yield reductions: 50%

## CS(=O)(=O)c1ccc(C(=O)C2C(=O)CCCC2=O)c([N+](=O)[O-])c1 [mesotrione]
Teff (Eragrostis tef)
  yield reductions: 30%
Teff [1]; field studies Oregon 2009
  injury to teff: 63%
Teff [1]; applied preemergence, field studies Oregon 2009
  injury to the teff: 100%

## CCc1cc(C)cc(CC)c1-c1c(OC(=O)C(C)(C)C)n2n(c1=O)CCOCC2 [pinoxaden]
Teff [1]; field studies Oregon 2009
  injury to teff: 70%

## COc1nc(C)nc(N(C)C(=O)NS(=O)(=O)c2ccccc2C(=O)O)n1 [tribenuron]
Teff [1]; [4]
  teff injury (in words): little or no teff injury

## COc1nc(C)nc(=NC(=O)NS(=O)(=O)c2ccccc2C(=O)O)[nH]1 [metsulfuron]
Teff [1]; field studies Oregon 2009
  levels of weed control, teff safety and teff yields: highest levels
Teff [1]; [4]
  teff injury (in words): little or no teff injury

## CCC(CC)Nc1c([N+](=O)[O-])cc(C)c(C)c1[N+](=O)[O-] [pendimethalin]
Teff [2]; pot experiments
  selectivity in teff: failed to show selectivity

## COc1cc(OC)nc(NC(=O)NS(=O)(=O)c2cc(C(=O)O)ccc2CNS(C)(=O)=O)n1 [mesosulfuron, 2-[(4,6-dimethoxypyrimidin-2-ylcarbamoyl)sulfamoyl]-α-methanesulfonamido-p-toluic acid]
Teff [1]; field studies Oregon 2009
  injury to teff: 10%

## COC(=O)C(C)Oc1ccc(Oc2ccc(Cl)cc2Cl)cc1 (centres unmarked) [Diclofop-methyl]
[3]
  control of Phalaris paradoxa and Setaria pallidefusca: controlled both weeds
Teff [2]; pot experiments, applied pre-emergence (diclofop-methyl only with a safener)
  safety / tolerance on teff: tolerated by teff

## O=C(O)c1nc(Cl)ccc1Cl [clopyralid]
Teff [1]; [4]
  teff injury (in words): little or no teff injury

## Cn1nc(-c2cc(OCC(=O)O)c(Cl)cc2F)c(Cl)c1OC(F)F [pyraflufen]
Teff [1]; [4]
  teff injury (in words): little or no teff injury
